Here are results for eleven molecules from patent publication US20250188078A1, “SMALL MOLECULE INHIBITORS OF THE CRL4 UBIQUITIN LIGASE” (Cornell University, priority 2022, published 2025).

Test [1] deals with CUL4A^high MDA-MB-468 breast cancer cells. Briefly: Cell killing in CUL4-high MDA-MB-468 cells (CellTiter Glo). The following applies: Homo sapiens, 192 h; MDA-MB-468 cells, 8 days treatment; read-out: EC50 CUL4-High Cells (cell killing). It counts as cell-based. How it is done:
EC50 refers to concentration of compound that induces 50% killing of CUL4A^high MDA-MB-468 cells (see Table 1, column 6). CUL4A^high MDA-MB-468 breast cancer cells were seeded in 96 well plates. After 24 hours, cells were treated with DMSO or compounds. Change fresh medium and compounds. After 8 days treatment, cell viability was examined by using CellTiter Glo kit (Promega #7570) following the manufacturer's guidelines (https://www.promega.com/-/media/files/resources/protocols/technicalbulletins/0/celltiter-glo-luminescent-cell-viability-assay protocol.pdf?rev=0d95c232094b41daa06d0c110d1d916f&sc_lang=en, hereby incorporated by reference in its entirety for all purposes). EC50 concentration was calculated by Prism 8 XY analysis nonlinear regression (curve fit-Log(inhibitor) vs response). Lower EC50 indicates high cell killing potential in CUL4^high MDA-MB-468 cells.
CUL4A^high MDA-MB-468, CUL4^low (T47D), and MCF7 breast cancer cells were seeded in 96 well plates separately. Cells were treated with DMSO, or from 0 to 20 μM compound respectively. Replace with fresh medium and compounds every 48 hours. After 8 days treatment, cell viability was examined by CellTiter Glo kit (Promega #7570). First, transfer the appropriate volume (10 ml for Cat. #G7570) of CellTiter-Glo® Buffer into the amber bottle containing CellTiter-Glo® Substrate to reconstitute the lyophilized enzyme/substrate mixture. This forms the CellTiter-Glo® Reagent. Second, add CellTiter-Glo® Reagent in an equal volume (100 μl per well for 96-well plates) to all wells. Mix contents for 2 minutes on an orbital shaker to induce cell lysis. Incubate at room temperature for 15 minutes to stabilize luminescent signal. Then record luminescence. EC50 concentration was calculated by Prism 8 XY analysis nonlinear regression (curve fit-Log(inhibitor) vs response).
For orientation: Cellular ATP, detected with luciferase, serves as a proxy for viable cell number.

In test [2] the test system is UV-induced CUL4-dependent DDB2 degradation in MEF-F-DDB2 cells. Briefly: Cell-based assay for inhibition of UV-induced CUL4-dependent DDB2 degradation. Details: key: (+) means that the normalized DDB2/α-tubulin ratio is higher in the compound treated sample than DMSO treated sample; (−) means that no change happens between compound treated sample with control sample. The following applies: DDB2/α-tubulin by Western blot. How it is done:
Cell-based assay for inhibition of UV-induced CUL4-dependent DDB2 degradation by small molecule CUL4 inhibitors (see Table 1, column 5). Briefly, MEF-F-DDB2 cells were seeded in 6-well plates. DMSO or indicated concentrations of compounds were added to MEF-F-DDB2 cells growing in serum-free medium. MEF-F-DDB2 cells were washed once with PBS and subsequently irradiated with a Philips TUV lamp (predominantly 254 nm) at a dose rate of 0.2 W/m^2. DMSO or compounds were added to MEF-F-DDB2 cells, and then cells were harvested. The cells were lysed, and equal amounts of proteins were resolved on SDS-PAGE gel and Flag-DDB2 levels were detected using anti-DDB2 (D4C4) rabbit antibody (Cell signaling, #5416S). α-tubulin (Proteintech, #66031-1-Ig) was used as an internal loading control. (+) means that the normalized DDB2/α-tubulin ratio is higher in the compound treated sample than DMSO treated sample. (−) means that no change happens between compound treated sample with control sample.

The target in test [3] is CUL4A-DDB1-BPB interaction (Homo sapiens (Human), UniProt Q16531). Briefly: AlphaLISA in vitro binding assay, CUL4A and DDB1-BPB binding. The following applies: inhibition of CUL4A and DDB1-BPB binding. From the text:
AlphaLISA IC50 (see Table 1, column 4) means the half maximal inhibitory concentration of compound that inhibits CUL4A and DDB1-BPB binding. Our lab established and optimized 384 well-based AlphaLISA in vitro binding assay for testing small molecule inhibitory activity. Small molecule libraries were screened for compounds that disrupt CUL4A-DDB1-BPB interaction using AlphaScreen detection beads (PerkinElmer, #AL112C and #6765300) following the manufacturer's protocol (https://www.perkinelmer.com/PDFs/downloads/GDE-Alphatech.pdf, hereby incorporated by reference in its entirety for all purposes). The 384-well assay plates (Greiner Bio-one, #781075) were read in Synergy Neo2 Hybrid Multi-Mode Reader (BioTek). The IC50 was calculated by Prism 8 XY analysis nonlinear regression (curve fit-Log(inhibitor) vs response).
On the technique in general: Alpha assays give light when donor and acceptor beads are brought close together.

A word on the EC50: it is the concentration at which the effect is half-maximal. What is called IC50 is the midpoint of a concentration-inhibition curve.

Sequence of CUL4A-DDB1-BPB interaction (Q16531 403-706): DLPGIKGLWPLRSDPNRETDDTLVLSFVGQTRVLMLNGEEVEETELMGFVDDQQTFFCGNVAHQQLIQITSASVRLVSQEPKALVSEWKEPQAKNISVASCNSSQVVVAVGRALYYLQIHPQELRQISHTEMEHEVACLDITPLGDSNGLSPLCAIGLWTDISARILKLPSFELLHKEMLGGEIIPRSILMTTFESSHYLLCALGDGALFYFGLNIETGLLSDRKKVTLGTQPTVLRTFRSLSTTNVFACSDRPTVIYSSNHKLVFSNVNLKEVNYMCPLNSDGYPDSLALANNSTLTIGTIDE

As for `O=C(O)c1cc2c([nH]c3cc(F)ccc32)c(-c2ccc(OCCCc3ccccc3)cc2)n1` [PA1-11C, 7-fluoro-1-(4-(3-phenylpropoxy)phenyl)-9H-pyrido[3,4-b]indole-3-carboxylic acid], the EC50 in test [1] was determined as 7.31 µM. Moreover, the “Degradation Inhibition (inhibition of UV-induced DDB2 degradation)” value (“Degradation Inhibition” below) in test [2] is recorded as “−”.

In the case of `O=C(O)c1cc2c([nH]c3cc(F)ccc32)c(-c2ccc(OCC3CCCCC3)cc2)n1` [PA1-11D, 1-(4-(cyclohexylmethoxy)phenyl)-7-fluoro-9H-pyrido[3,4-b]indole-3-carboxylic acid], in test [1], the 50% effective concentration (EC50) was determined as 9.51 µM. For the same molecule, the “Degradation Inhibition” value in test [2] was “−”.

Consider `O=C(O)c1cc2c([nH]c3cc(F)ccc32)c(-c2ccc(OCC3CCOCC3)cc2)n1` [PA1-11E, 7-fluoro-1-(4-((tetrahydro-2H-pyran-4-yl)methoxy)phenyl)-9H-pyrido[3,4-b]indole-3-carboxylic acid], for which the concentration giving a half-maximal response (EC50) in test [1] was above 20 µM. Further, the “Degradation Inhibition” value in test [2] is “−”.

As for `O=C(O)c1cc2c([nH]c3cc(F)ccc32)c(-c2ccc(OCc3ccncc3)cc2)n1` [PA1-11F, 7-fluoro-1-(4-(pyridin-4-ylmethoxy)phenyl)-9H-pyrido[3,4-b]indole-3-carboxylic acid], in test [1], the half-maximal effective concentration (EC50) is above 20 µM. In addition, the “Degradation Inhibition” value in test [2] is on record as “−”.

In the case of `O=C(O)c1cc2c([nH]c3cc(F)ccc32)c(-c2ccc(OCc3cccnc3)cc2)n1` [PA1-11G, 7-fluoro-1-(4-(pyridin-3-ylmethoxy)phenyl)-9H-pyrido[3,4-b]indole-3-carboxylic acid], the EC50 in test [1] is above 20 µM. The “Degradation Inhibition” value in test [2] is reported as “−”.

For the molecule `O=C(O)c1cc2c([nH]c3cc(F)ccc32)c(-c2ccc(OCc3ccsc3)cc2)n1` [PA1-11I, 7-fluoro-1-(4-(thiophen-3-ylmethoxy)phenyl)-9H-pyrido[3,4-b]indole-3-carboxylic acid], the EC50 in test [1] came to 14 µM. Further, in test [2], the “Degradation Inhibition” value is reported as “−”.

Turning to `O=C(O)c1cc2c([nH]c3cc(F)ccc32)c(-c2ccc(OCc3cscn3)cc2)n1` [PA1-11K, 7-fluoro-1-(4-(thiazol-4-ylmethoxy)phenyl)-9H-pyrido[3,4-b]indole-3-carboxylic acid], the EC50 in test [1] is above 20 µM. Also, the “Degradation Inhibition” value in test [2] is on record as “−”.

For the molecule `Cc1cc(N(C)S(=O)(=O)c2ccccc2)ccc1-c1nc(C(=O)O)cc2c1[nH]c1cc(F)ccc12` [PA1-12A, 7-fluoro-1-(2-methyl-4-(N-methylphenylsulfonamido)phenyl)-9H-pyrido[3,4-b]indole-3-carboxylic acid], the IC50 in test [3] worked out at 2.4 µM. For the same molecule, the concentration giving a half-maximal response (EC50) in test [1] is 9.84 µM. Further, in test [2], the “Degradation Inhibition” value is reported as “−”.

Regarding `COC(=O)c1cc2c([nH]c3cc(F)ccc32)c(-c2ccc(N(C)S(=O)(=O)c3ccc(C#N)cc3)cc2)n1` [PA1-13A-2 ESTER], in test [3], the “AlphaLisa IC50” value is “Neg”. In test [1], the half-maximal effective concentration (EC50) is above 20 µM. Also, the “Degradation Inhibition” value in test [2] was “+”.

As for `CN(c1ccc(-c2nc(C(=O)O)cc3c2[nH]c2cc(F)ccc23)cc1)S(=O)(=O)c1ccc(C#N)cc1` [PA1-13A-2, 1-(4-((4-cyano-N-methylphenyl)sulfonamido)phenyl)-7-fluoro-9H-pyrido[3,4-b]indole-3-carboxylic acid], in test [3], the IC50 was 2.51 µM. The EC50 in test [1] was found to be 3.54 µM. Moreover, in test [2], the “Degradation Inhibition” value is “−”.

`CN1CCN(c2ccc(S(=O)(=O)N(C)c3ccc(-c4nc(C(=O)O)cc5c4[nH]c4cc(F)ccc45)cc3)cc2)CC1` [PA1-13A-7, 7-fluoro-1-(4-((N-methyl-4-(4-methylpiperazin-1-yl)phenyl)sulfonamido)phenyl)-9H-pyrido[3,4-b]indole-3-carboxylic acid]: the IC50 in test [3] turned out to be 0.38 µM. Also, the concentration giving a half-maximal response (EC50) in test [1] came out at 14.5 µM. The “Degradation Inhibition” value in test [2] is “−”.
